US20130023496A1, “Combination Therapy Comprising A CCR5 Antagonist, A HIV-1 Protease Inhibtior and a Pharmacokinetic Enhancer” (priority 2010, published 2013)

Legend:
HIV-1 = conditions: 48 weeks; atazanavir 300 mg/ritonavir 100 mg QD with Truvada versus lopinavir/r; cited from earlier work
CCR5-tropic HIV = assay: Randomized controlled study of atazanavir/ritonavir QD with maraviroc or Truvada in treatment-naïve patients, 24 weeks; type: in vivo, human; conditions: with atazanavir 300 mg QD and ritonavir 100 mg QD
Excerpt: To ascertain whether a once daily, nucleoside-sparing regimen using a CCR5 antagonist could be safely and efficaciously administered to HIV-positive patients infected with CCR5-tropic HIV, a randomized, controlled study is being conducted.

CCR5 tropic HIV-1 virus = conditions: maraviroc 300 mg QD arm, preliminary results; cited from earlier work

Question: Which “non-inferiority primary endpoint of undetectable viral load (HIV-1 RNA less than 50 copies/mL)” value (HIV-1) does the source give for `COC(=O)N[C@H](C(=O)N[C@@H](Cc1ccccc1)[C@@H](O)CN(Cc1ccc(-c2ccccn2)cc1)NC(=O)[C@@H](NC(=O)OC)C(C)(C)C)C(C)(C)C` [atazanavir] here?
Answer: met the non-inferiority primary endpoint

Question: For “N-{(1S)-3-[3-(3-isopropyl-5-methyl-4H-1,2,4-triazol-4-yl)-exo-8-azabicyclo[3.2.1]oct-8-yl]-1-phenylpropyl}-4, 4-difluorocyclohexanecarboxamide [maraviroc]”, which “increase in CD4+” value (CCR5-tropic HIV; after 24 weeks) is on record?
Answer: 195 cells

Question: And the “percentage of patients who achieved less than 50 copies/mL” value (CCR5-tropic HIV; week 24, HIV-1 RNA)?
Answer: 80%

Question: What about the “percentage of patients who achieved less than 400 copies/mL” value (CCR5-tropic HIV; week 24, HIV-1 RNA) of the same compound?
Answer: 90%

Question: And the “non-inferiority versus the efavirenz arm” value (CCR5 tropic HIV-1 virus)?
Answer: did not meet the regulatory prespecified criteria for non-inferiority
